pIC50, pKd: −log10 of the molar value. The source made the active and inactive calls. The calls are words filed in the database; no cut-off is given here.
Key:
HeLa [1] = experiment: Cell cycle arrest in human HeLa cells assessed as accumulation at G2/M phase at 10 uM after 24 hrs by FACS flow cytometric analysis (reference value: 3.9 +/- 0.10%); type: functional
HeLa [2] = experiment: Cell cycle arrest in human HeLa cells assessed as accumulation at G0/G1 phase at 10 uM after 24 hrs by FACS flow cytometric analysis (reference value: 69.9 +/- 2.41%); type: functional
HeLa [3] = experiment: Antiproliferative activity against human HeLa cells after 48 hrs by MTT assay; type: functional, cell-based
[4] = Inhibition of choline kinase in human HepG2 cells assessed as incorporation of [14C] from [methyl-14C]choline into phosphocholine after 20 mins by liquid scintillation counting analysis; type: cell-based
HeLa [5] = experiment: Induction of apoptosis in human HeLa cells at 10 uM after 24 hrs by annexin V-FITC/propidium iodide staining-based FACS flow cytometric analysis; type: functional, cell-based
HeLa [6] = experiment: Cell cycle arrest in human HeLa cells assessed as accumulation at S phase at 10 uM after 24 hrs by FACS flow cytometric analysis (reference value: 25 +/- 2.53%); type: functional
Homo sapiens = organism: Homo sapiens; experiment: Selectivity ratio of Kd for human CK-beta to Kd for human CK-alpha1
[7] = target: Choline/ethanolamine kinase (Homo sapiens, UniProt Q9Y259); experiment: Binding affinity to human CK-beta by tryptophan fluorescence spectroscopic analysis
Sequence of Choline/ethanolamine kinase (Q9Y259 whole entry): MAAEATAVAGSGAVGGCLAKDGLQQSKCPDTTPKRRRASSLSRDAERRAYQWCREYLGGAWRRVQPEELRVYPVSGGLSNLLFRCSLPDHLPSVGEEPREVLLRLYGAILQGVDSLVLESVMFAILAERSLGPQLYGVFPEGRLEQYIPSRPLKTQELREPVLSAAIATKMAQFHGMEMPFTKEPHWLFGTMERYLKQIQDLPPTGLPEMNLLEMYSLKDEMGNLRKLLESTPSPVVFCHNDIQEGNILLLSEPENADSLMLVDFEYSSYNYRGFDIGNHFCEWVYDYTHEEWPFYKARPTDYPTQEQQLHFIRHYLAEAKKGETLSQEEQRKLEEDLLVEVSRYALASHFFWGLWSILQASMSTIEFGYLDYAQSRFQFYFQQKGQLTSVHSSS

HeLa [8] = experiment: Induction of apoptosis in human HeLa cells assessed as upregulation of caspase-3 protein expression after 12 to 48 hrs by Western blot analysis; type: functional, cell-based
HeLa [9] = experiment: Induction of apoptosis in human HeLa cells at 10 uM after 24 hrs by annexin V-FITC/propidium iodide staining-based FACS flow cytometric analysis (reference value: 14.8%); type: functional
Choline kinase alpha = Choline kinase alpha (Homo sapiens, UniProt P35790); experiment: Binding affinity to human CK-alpha1 by tryptophan fluorescence spectroscopic analysis
Sequence of Choline kinase alpha (P35790 whole entry): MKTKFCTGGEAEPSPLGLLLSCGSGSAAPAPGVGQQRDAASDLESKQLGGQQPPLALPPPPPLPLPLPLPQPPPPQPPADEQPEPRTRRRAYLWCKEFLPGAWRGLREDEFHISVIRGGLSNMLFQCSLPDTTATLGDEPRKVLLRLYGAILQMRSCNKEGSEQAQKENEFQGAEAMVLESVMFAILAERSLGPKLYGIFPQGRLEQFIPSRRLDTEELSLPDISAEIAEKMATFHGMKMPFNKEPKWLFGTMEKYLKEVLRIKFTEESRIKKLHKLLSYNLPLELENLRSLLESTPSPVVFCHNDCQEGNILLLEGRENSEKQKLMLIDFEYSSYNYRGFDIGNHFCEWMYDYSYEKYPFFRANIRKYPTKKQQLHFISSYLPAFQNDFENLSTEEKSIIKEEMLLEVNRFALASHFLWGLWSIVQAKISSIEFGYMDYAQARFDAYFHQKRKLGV

pIC50 (HeLa [3])	pIC50 [4]	Selectivity ratio (Homo sapiens)	pKd [7]	IC50 (HeLa [3]) [ng/mL]	pKd (Choline kinase alpha)	SMILES	Activity (HeLa [1]) [%]	Activity (HeLa [2]) [%]	Activity (HeLa [5])	Activity (HeLa [6]) [%]	Activity (HeLa [8])	Activity (HeLa [9]) [%]
5.43	6.10	–	–	–	–	CN(C)c1cc[n+](Cc2ccc(-c3ccc(C[n+]4ccc(N5CCCC5)cc4)cc3)cc2)cc1.[Br-].[Br-]	2.7	72.8	Active	24.5	–	–
5.03	5.60	–	–	–	–	CN(c1ccc(Cl)cc1)c1cc[n+](Cc2ccc(CCc3ccc(C[n+]4ccc(N5CCCC5)cc4)cc3)cc2)cc1.[Br-].[Br-]	2.2	77	Active	20.8	–	–
5.72	5.92	200	4.66	–	–	CN(C)c1cc[n+](Cc2ccc(CCCCc3ccc(C[n+]4ccc(N(C)c5ccc(Cl)cc5)cc4)cc3)cc2)cc1.[Br-].[Br-]	0.9	85.9	Active	12.8	Dose-dependent effect	55.6
5.68	6.05	–	–	–	–	CN(C)c1cc[n+](Cc2ccc(CCCCc3ccc(C[n+]4ccc(N5CCCC5)cc4)cc3)cc2)cc1.[Br-].[Br-]	2.8	77.8	Active	19.2	–	–
5.68	5.82	–	–	–	–	CN(c1ccc(Cl)cc1)c1cc[n+](Cc2ccc(CCCCc3ccc(C[n+]4ccc(N5CCCC5)cc4)cc3)cc2)cc1.[Br-].[Br-]	1.3	83.3	Active	15.4	–	–
4.80	5.10	–	–	–	–	CN(C)c1cc[n+](Cc2ccc(C[n+]3ccc(N4CCCC4)cc3)cc2)cc1	–	–	–	–	–	–
4.32	6.22	–	–	–	–	CN(c1ccc(Cl)cc1)c1cc[n+](Cc2ccc(C[n+]3ccc(N4CCCC4)cc3)cc2)cc1	–	–	–	–	–	–
5.39	5.66	–	–	–	–	CN(c1ccc(Cl)cc1)c1cc[n+](Cc2ccc(-c3ccc(C[n+]4ccc(N5CCCC5)cc4)cc3)cc2)cc1.[Br-].[Br-]	3.1	73.1	Active	23.8	–	–
–	–	–	–	8	–	CC(=O)O[C@H]1C(=O)[C@@]2(C)[C@H]([C@H](OC(=O)c3ccccc3)[C@]3(O)C[C@H](OC(=O)[C@H](O)[C@@H](NC(=O)c4ccccc4)c4ccccc4)C(C)=C1C3(C)C)[C@]1(OC(C)=O)CO[C@@H]1C[C@@H]2O [PACLITAXEL]	–	–	–	–	Dose-dependent effect	–
5.07	5.92	–	–	–	6.40	CN(C)c1cc[n+](Cc2ccc(CCc3ccc(C[n+]4ccc(N5CCCC5)cc4)cc3)cc2)cc1.[Br-].[Br-]	2.6	72.5	Active	24.9	–	–
4.61	6.05	–	–	–	–	CN(C)c1cc[n+](Cc2ccc(C[n+]3ccc(N(C)c4ccc(Cl)cc4)cc3)cc2)cc1	–	–	–	–	–	–
4.93	5.82	–	–	–	6.21	CN(C)c1cc[n+](Cc2ccc(-c3ccc(C[n+]4ccc(N(C)c5ccc(Cl)cc5)cc4)cc3)cc2)cc1	–	–	–	–	–	–
5.89	6.15	–	–	–	–	CN(C)c1cc[n+](Cc2ccc(CCc3ccc(C[n+]4ccc(N(C)c5ccc(Cl)cc5)cc4)cc3)cc2)cc1.[Br-].[Br-]	1.8	83.3	Active	14.9	–	–
